One compound from patent US11608325B2, “Polycrystalline form of dehydrophenylahistin-like compound, and manufacturing and purification method and application thereof” (Shenzhen Huahong Marine Biomedicine Co., Ltd., priority 2016, dated 2023) can be followed below.

Entries after “also recorded” stand apart in the source; their conditions may differ.

Format in all cases: physicochemical
Data set [1] is described as follows: High-humidity stress test (25° C., 90% RH). The conditions noted are these: stress testing, high humidity (25° C., 90% RH). Here is the method:
In accordance with the general rule 9001 of guiding principles for stability tests of APIs and preparations in the Chinese Pharmacopoeia 2015 edition Volume IV, stress testing of the δ-crystalline form of (3Z,6Z)-3-benzylidene-6-[(5-tert-butyl-1H-imidazol-4-yl)deuteromethylene]piperazine-2,5-dione was conducted under high temperature, high humidity and illumination conditions, the sample batch number was 20150401, and the results are shown in Tables 7, 8 and 9 below.

Data set [2] in a line: Transformation of other crystalline forms under humidity or in water. The conditions noted are these: under 60% humidity condition.
A short description of data set [3]: Hygroscopicity test (Chinese Pharmacopoeia 2015 Volume IV, general rule 9103). Here is the method:
The test was conducted according to the general rule 9103 of guiding principle for drug hygroscopicity test in Chinese Pharmacopoeia 2015 edition Volume IV, and the results are shown in Table 6.

In the case of `[2H]/C(c1nc[nH]c1C(C)(C)C)=c1/[nH]c(=O)/c(=C/c2ccccc2)[nH]c1=O` [α-crystalline form, (3Z,6Z)-3-benzylidene-6-[(5-tert-butyl-1H-imidazol-4-yl)deuteromethylene]piperazine-2,5-dione], in data set [1], the “stability / transformation under high-humidity condition” value is listed as “easily transformed into the δ-crystalline form; also recorded: absorbs moisture easily to transform into δ-crystalline form”. In addition, the “transformation of crystalline form” value in data set [2] is reported as “may partially transform into δ-crystalline form”. Also, the Hygroscopicity entry in data set [3] is given as “certain hygroscopicity”.
